This note sets out measurements from patent US4557930A, “Anticholesteremic anion exchange resins” (Mitsubishi Petrochemical Co., Ltd., priority 1983, dated 1985).

This experiment relates to descending aorta; plasma lipids. Nature of the experiment: In vivo test by rabbit (arteriosclerosis inhibition test): plasma lipids and aorta. Also on record: species or system rabbit (New Zealand). An excerpt:
Eight to fourteen male New Zealand species rabbits, weighing about 2.2 Kg, were used per each group. To the first group of rabbits was given 40 g/Kg-body weight/day of a mixture of a feed produced by Oriental Yeast Co. mixed with 0.67% of cholesterol for 12 weeks, and to the rabbits of the second and third groups were further given CR - 1 and Clofibrate, respectively.
CR - 1 and Clofibrate employed was mixed in the feed at levels of 1.25% and 0.25%, respectively.
During the tests, the plasma lipid concentrations were measured, and after 12 weeks, all the rabbits were sacrificed by bleeding. Descending aorta were subjected to incision and the conditions of arteriosclerosis were observed.

Where [1] appears, read: 0.67% cholesterol intake, 6 weeks, CR - 1 1.25%, Clofibrate 0.25% in feed.
The mark [2] stands for this setting: 0.67% cholesterol intake, 12 weeks, CR - 1 1.25%, Clofibrate 0.25% in feed.

In the case of `CCOC(=O)C(C)(C)Oc1ccc(Cl)cc1` [Clofibrate], under setting [1], the “Total plasma: Cholesterol” value worked out at 1810 ± 124 mg/dL, the “Total plasma: Triglyceride” value stood at 337.1 ± 66.1 mg/dL and the “Total plasma: β-Lipoprotein” value stood at 5038 ± 450 mg/dL. In addition, under setting [2], the “Aorta: Area of blood vessel at arteriosclerosis” value worked out at 8.0 ± 1.4 cm^2, the “Aorta: Inhibition of arteriosclerosis” value was 18.0%, the “Aorta: Total area” value worked out at 17.7 ± 0.5 cm^2 and the “Total plasma: Cholesterol” value worked out at 1895 ± 117 mg/dL. Under setting [2], the “Total plasma: Triglyceride” value was determined as 336.8 ± 39.7 mg/dL and the “Total plasma: β-Lipoprotein” value turned out to be 4385 ± 574 mg/dL. For the same compound, the “Aorta: Percentage of arteriosclerosis” value ((Area at arteriosclerosis)/(Total blood vessel area) × 100, 0.67% cholesterol intake, 12 weeks) is listed as 44.2 ± 7.0%.
